# From the SangsterLogP compilation
# Assay: not given
row,SMILES,logP
1,C=CC(C)(CCC=C(C)C)OC(C)=O (configuration not stated),3.93
2,CC1=CCC(=C(C)C)CC1,4.24
3,CC1(C)[C@H]2CC=C(CO)[C@@H]1C2,3.22
4,CC1=CC2C(CC1)C2(C)C (configuration not stated),4.44
5,C/C=C/c1ccc(O)c(OC)c1,3.04
6,CC1=CC=C(C(C)C)CC1,4.25
7,CC(C)C12CCC(C)(CC1)O2,2.97
8,C=CCc1ccc(OC)c(OC)c1,3.45
9,CC(C)=CCC[C@@H](C)CC=O,3.83
10,C=CC1(C)CCC(C(C)(C)O)O1 (configuration not stated),2.43
11,Cc1ccc(C(C)C)cc1O,3.49
12,C=C(C)[C@@H]1CC=C(C=O)CC1,3.13
13,CC(=O)OC/C=C(\C)CCC=C(C)C,4.04
14,CC12CCC(CC1)C(C)(C)O2,2.84
15,CC(C)=CCC/C(C)=C/CO,3.56
16,C=C(C)[C@@H]1CC=C(CO)CC1,3.17
17,CC12CC[C@@H](C1)C(C)(C)C2=O (stereo in doubt),3.17
18,CC1=CCC2[C@H](C1=O)C2(C)C (some centres not stated),2.42
19,CC12CCC(CC1=O)C2(C)C (configuration not stated),2.74
20,CC1=CCC2C(C1)C2(C)C (configuration not stated),4.38

# Continued, values first:
row,logP,SMILES
1,2.98,CC1(C)[C@@H]2CC=C(C=O)[C@H]1C2
2,3.85,CC(=O)/C=C/[C@H]1C(C)=CCCC1(C)C
3,3.84,CC(=O)C=CC1=C(C)CCCC1(C)C
4,3.16,CC1=C[C@H](O)[C@H]2C[C@@H]1C2(C)C
5,2.05,CC1(C)C2CCC(CN)C1C2 (configuration not stated)
6,3.21,C=C(C)[C@H]1CC[C@H](C)[C@@H](O)C1
7,3.01,CC1(C)C2CCC1(C)C(O)C2 (configuration not stated)
8,3.2,C=C(C)C1CCC2(C)OC2C1 (configuration not stated)
9,2.23,CC1=CC(=O)[C@H]2CC1C2(C)C
10,3.08,CC(C)=C1CC[C@@H](C)CC1=O
11,2.85,CC1=CC(=O)C(C(C)C)CC1 (configuration not stated)
12,4,CC(=O)OC1C[C@H](C)CCC1C(C)C (some centres not stated)
13,3.05,CC(C)[C@@H]1CC[C@@H](C)CC1=O
14,3.41,CC1(C)[C@H]2CC[C@@H](CO)[C@@H]1C2

# Assay: method code SF-GLC, from DOI: 10.1016/s0021-9673(99)01009-2, PMID: 10669289
row,SMILES,logP
1,C=C(C)C1CC=C(C)C(O)C1 (configuration not stated),2.85
2,CC1=CCC(C(C)(C)O)CC1O (configuration not stated),1.11
3,CC1=CCC(C(C)(C)O)CC1 (configuration not stated),3.28
4,C=C(C)[C@H]1CC=C(C)C(=O)C1,2.71

# The next lines start with the values.
row,logP,SMILES
1,2.85,C=C(C)C1CCC(C)C(=O)C1 (configuration not stated)
2,2.8,CC1=CCC(O)(C(C)C)CC1 (configuration not stated)
3,3.96,CC(=O)OC(C)(C)C1C=CC(C)CC1 (configuration not stated)
4,4.44,CC1=CCC2C[C@H]1C2(C)C
